Measurements: patent US20250281424A1 (New York Blood Center, Inc, priority 2020, published 2025)

Target: T1, human PF4 (Homo sapiens, UniProt P02776)
T1 construct: PF4 is a 70 amino acid, lysine-rich 7.8 kDa platelet-specific protein; made in house; host or cells: Escherichia coli BL21DE3 pLysS (pT7-7) and/or Drosophila S2 cells
T1 sequence (P02776 32-101): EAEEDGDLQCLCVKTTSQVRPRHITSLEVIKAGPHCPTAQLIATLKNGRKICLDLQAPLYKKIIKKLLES
Assay: Inhibition of PF4 tetramer formation (BS3 cross-linking, SDS-PAGE)
Format: biochemical
Conditions: for inhibition at 5 µM: 5 μM inhibitor; for inhibition at 5 µM / inhibition at 10 µM / inhibition at 1 µM / inhibition at 3 µM: read-out: % inhibition of PF4 tetramer formation at single concentration of inhibitor; for inhibition at 10 µM: 10 μM inhibitor (column A); for IC50: read-out: IC50 of PF4 tetramer formation inhibition; for inhibition at 1 µM: 1 μM inhibitor; for inhibition at 3 µM: 3 μM inhibitor (column A)
In short: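 Recombinant human wild-type PF4 (E. coli-expressed, heparin-purified), 10 μg/ml in PBS, incubated with compound 15 min at 37° C or 60 min at room temperature, then cross-linked with 0.2 mM BS3 for 30 min at room temperature. Reducing 12% SDS-PAGE; bands quantified as % tetramer, trimer, dimer, monomer versus compound-free control.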

Structure (SMILES)	inhibition at 5 µM	inhibition at 10 µM	IC50	inhibition at 1 µM	inhibition at 3 µM
CC(C)(C)OC(=O)NCCC(=O)C1C(=O)c2ccc(C(=O)c3ccc4c(c3)C(=O)C(C(=O)CCNC(=O)OC(C)(C)C)C4=O)cc2C1=O (centres unmarked) [Example 163, tert-butyl N-(3-{5-[2-(3-{[(tert-butoxy)carbonyl]amino}propanoyl)-1,3-dioxo-2,3-dihydro-1H-indene-5-carbonyl]-1,3-dioxo-2,3-dihydro-1H-inden-2-yl}-3-oxopropyl)carbamate]	87%	93%	13 µM	–	–
O=C(c1ccnc(-c2ccccc2)c1)C1C(=O)c2ccc(S(=O)(=O)c3ccc4c(c3)C(=O)C(C(=O)c3ccnc(-c5ccccc5)c3)C4=O)cc2C1=O (centres unmarked) [Example 241, 5-{[1,3-dioxo-2-(2-phenylpyridine-4-carbonyl)-2,3-dihydro-1H-inden-5-yl]sulfonyl}-2-(2-phenylpyridine-4-carbonyl)-2,3-dihydro-1H-indene-1,3-dione]	–	–	–	14%	29%
COCCOCCC(=O)C1C(=O)c2ccc(C(=O)c3ccc4c(c3)C(=O)C(C(=O)CCOCCOC)C4=O)cc2C1=O (centres unmarked) [Example 382, 2-[3-(2-methoxyethoxy)propanoyl]-5-{2-[3-(2-methoxyethoxy)propanoyl]-1,3-dioxo-2,3-dihydro-1H-indene-5-carbonyl}-2,3-dihydro-1H-indene-1,3-dione]	–	–	0.29 µM	20%	70%
CC(C)(C)OC(=O)N1CC[C@@H](C(=O)C2C(=O)c3ccc(C(=O)c4ccc5c(c4)C(=O)C(C(=O)[C@@H]4CCN(C(=O)OC(C)(C)C)C4)C5=O)cc3C2=O)C1 (stereo partly drawn) [Example 375, tert-butyl (3R)-3-(5-{2-[(3R)-1-[(tert-butoxy)carbonyl]pyrrolidine-3-carbonyl]-1,3-dioxo-2,3-dihydro-1H-indene-5-carbonyl}-1,3-dioxo-2,3-dihydro-1H-indene-2-carbonyl)pyrrolidine-1-carboxylate]	–	–	–	14%	32%
CSCCC(=O)C1C(=O)c2ccc(C(=O)c3ccc4c(c3)C(=O)C(C(=O)CCSC)C4=O)cc2C1=O (centres unmarked) [Example 277, 2-[3-(methylsulfanyl)propanoyl]-5-{2-[3-(methylsulfanyl)propanoyl]-1,3-dioxo-2,3-dihydro-1H-indene-5-carbonyl}-2,3-dihydro-1H-indene-1,3-dione]	–	–	3 µM	38%	41%
CC(C)OCC(=O)C1C(=O)c2ccc(S(=O)(=O)c3ccc4c(c3)C(=O)C(C(=O)COC(C)C)C4=O)cc2C1=O (centres unmarked) [Example 379, 5-({1,3-dioxo-2-[2-(propan-2-yloxy)acetyl]-2,3-dihydro-1H-inden-5-yl}sulfonyl)-2-[2-(propan-2-yloxy)acetyl]-2,3-dihydro-1H-indene-1,3-dione]	–	–	0.66 µM	43%	68%
CC(C)(C)OC(=O)N[C@@H](C(=O)C1C(=O)c2ccc(S(=O)(=O)c3ccc4c(c3)C(=O)C(C(=O)[C@H](NC(=O)OC(C)(C)C)c3ccccc3)C4=O)cc2C1=O)c1ccccc1 (some centres unmarked) [Example 182]	74%	88%	5.7 µM	–	–
CC(=O)c1cccc(NC(=O)C2C(=O)c3ccc(C(=O)c4ccc5c(c4)C(=O)C(C(=O)Nc4cccc(C(C)=O)c4)C5=O)cc3C2=O)c1 (centres unmarked) [Example 103, N-(3-acetylphenyl)-5-{2-[(3-acetylphenyl)carbamoyl]-1,3-dioxo-2,3-dihydro-1H-indene-5-carbonyl}-1,3-dioxo-2,3-dihydro-1H-indene-2-carboxamide]	66%	77%	0.5 µM	–	–
CC(=O)NCC(=O)C1C(=O)c2ccc(C(=O)c3ccc4c(c3)C(=O)C(C(=O)CNC(C)=O)C4=O)cc2C1=O (centres unmarked) [Example 181, N-(2-{5-[2-(2-acetamidoacetyl)-1,3-dioxo-2,3-dihydro-1H-indene-5-carbonyl]-1,3-dioxo-2,3-dihydro-1H-inden-2-yl}-2-oxoethyl)acetamide]	86%	96%	1.6 µM	–	–
O=C(c1ccc2c(c1)C(=O)C(C(=O)CC1CCCC1=O)C2=O)c1ccc2c(c1)C(=O)C(C(=O)CC1CCCC1=O)C2=O (centres unmarked) [Example 261, 5-{1,3-dioxo-2-[2-(2-oxocyclopentyl)acetyl]-2,3-dihydro-1H-indene-5-carbonyl}-2-[2-(2-oxocyclopentyl)acetyl]-2,3-dihydro-1H-indene-1,3-dione]	–	–	1.32 µM	67%	77%
CCC(=O)C1C(=O)c2ccc(S(=O)(=O)c3ccc4c(c3)C(=O)C(C(=O)CC)C4=O)cc2C1=O (centres unmarked) [Example 325, 5-[(1,3-dioxo-2-propanoyl-2,3-dihydro-1H-inden-5-yl)sulfonyl]-2-propanoyl-2,3-dihydro-1H-indene-1,3-dione]	–	34%	–	–	–
CC(C)(C)OC(=O)N1CSC[C@H]1C(=O)C1C(=O)c2ccc(C(=O)c3ccc4c(c3)C(=O)C(C(=O)[C@@H]3CSCN3C(=O)OC(C)(C)C)C4=O)cc2C1=O (stereo partly drawn) [Example 129, tert-butyl (4R)-4-(5-{2-[(4R)-3-[(tert-butoxy)carbonyl]-1,3-thiazolidine-4-carbonyl]-1,3-dioxo-2,3-dihydro-1H-indene-5-carbonyl}-1,3-dioxo-2,3-dihydro-1H-indene-2-carbonyl)-1,3-thiazolidine-3-carboxylate]	–	–	~2 µM	–	–
O=C(O)CNC(=O)C1C(=O)c2ccc(S(=O)(=O)c3ccc4c(c3)C(=O)C(C(=O)NCC(=O)O)C4=O)cc2C1=O (centres unmarked) [Example 311, 2-{[5-({2-[(carboxymethyl)carbamoyl]-1,3-dioxo-2,3-dihydro-1H-inden-5-yl}sulfonyl)-1,3-dioxo-2,3-dihydro-1H-inden-2-yl]formamido}acetic acid]	–	73%	–	–	–
COc1ccccc1NC(=O)C1C(=O)c2ccc(S(=O)(=O)c3ccc4c(c3)C(=O)C(C(=O)Nc3ccccc3OC)C4=O)cc2C1=O (centres unmarked) [Example 69, 5,5′-sulfonylbis(n-(2-methoxyphenyl)-1,3-dioxo-2,3-dihydro-1h-indene-2-carboxamide)]	60%	85%	1.05 µM	–	–
CCCC(=O)C1C(=O)c2ccc(S(=O)(=O)c3ccc4c(c3)C(=O)C(C(=O)CCC)C4=O)cc2C1=O (centres unmarked) [Example 322, 2-butanoyl-5-[(2-butanoyl-1,3-dioxo-2,3-dihydro-1H-inden-5-yl)sulfonyl]-2,3-dihydro-1H-indene-1,3-dione]	–	40%	–	–	–
C[C@H](NC(=O)OC(C)(C)C)C(=O)C1C(=O)c2ccc(C(=O)c3ccc4c(c3)C(=O)C(C(=O)[C@H](C)NC(=O)OC(C)(C)C)C4=O)cc2C1=O (stereo partly drawn) [Example 179, tert-butyl N-[(2S)-1-(5-{2-[(2S)-2-{[(tert-butoxy)carbonyl]amino}propanoyl]-1,3-dioxo-2,3-dihydro-1H-indene-5-carbonyl}-1,3-dioxo-2,3-dihydro-1H-inden-2-yl)-1-oxopropan-2-yl]carbamate]	81%	92%	~6 µM	–	–
O=C(c1ccc2c(c1)C(=O)C(C(=O)C1CC1)C2=O)c1ccc2c(c1)C(=O)C(C(=O)C1CC1)C2=O (centres unmarked) [Example 401]	–	–	–	22%	23%
CN(CC(=O)C1C(=O)c2ccc(C(=O)c3ccc4c(c3)C(=O)C(C(=O)CN(C)C(=O)OC(C)(C)C)C4=O)cc2C1=O)C(=O)OC(C)(C)C (centres unmarked) [Example 264, tert-butyl N-(2-{5-[2-(2-{[(tert-butoxy)carbonyl](methyl)amino}acetyl)-1,3-dioxo-2,3-dihydro-1H-indene-5-carbonyl]-1,3-dioxo-2,3-dihydro-1H-inden-2-yl}-2-oxoethyl)-N-methylcarbamate]	–	–	9.83 µM	72%	75%
CCOC(=O)CCNC(=O)C1C(=O)c2ccc(C(=O)c3ccc4c(c3)C(=O)C(C(=O)NCCC(=O)OCC)C4=O)cc2C1=O (centres unmarked) [Example 27, 5,5′-carbonylbis(3-[(1,3-dioxo-indane-2-carbonyl)-amino]-propionic acid ethyl ester)]	–	–	10.8 µM	–	–
COC(=O)CCCC(=O)C1C(=O)c2ccc(-c3ccc4c(c3)C(=O)C(C(=O)CCCC(=O)OC)C4=O)cc2C1=O (centres unmarked) [Example 226, methyl 5-[2′-(5-methoxy-5-oxopentanoyl)-1,1′,3,3′-tetraoxo-1H,1′H,2H,2′H,3H,3′H-[5,5′-biinden]-2-yl]-5-oxopentanoate]	77%	92%	4 µM	–	–
CC(C)(C)OC(=O)N1CC[C@H]1C(=O)C1C(=O)c2ccc(S(=O)(=O)c3ccc4c(c3)C(=O)C(C(=O)[C@@H]3CCN3C(=O)OC(C)(C)C)C4=O)cc2C1=O (stereo partly drawn) [Example 138, tert-butyl (2S)-2-[5-({2-[(2S)-1-[(tert-butoxy)carbonyl]azetidine-2-carbonyl]-1,3-dioxo-2,3-dihydro-1H-inden-5-yl}sulfonyl)-1,3-dioxo-2,3-dihydro-1H-indene-2-carbonyl]azetidine-1-carboxylate]	–	–	4.1 µM	–	–
O=C(O)CCC(=O)C1C(=O)c2ccc(Oc3ccc4c(c3)C(=O)C(C(=O)CCC(=O)O)C4=O)cc2C1=O (centres unmarked) [Example 245, 4-(5-{[2-(3-carboxypropanoyl)-1,3-dioxo-2,3-dihydro-1H-inden-5-yl]oxy}-1,3-dioxo-2,3-dihydro-1H-inden-2-yl)-4-oxobutanoic acid]	–	–	–	27%	47%
